According to article PMC8469417, “Is It Possible to Create Antimicrobial Peptides Based on the Amyloidogenic Sequence of Ribosomal S1 Protein of P. aeruginosa?” (International Journal of Molecular Sciences, 2021):
Entries after “also recorded” stand apart in the source; their conditions may differ. Where a name gives a salt, the structure may show the parent alone. Ends that are not written are not given here.

Key:
[1] = electron microscopy and fluorescence of thioflavin T; cited from earlier work
From the text: In accordance with the strategy presented in Figure 1, we developed hybrid peptides that contained a cell penetrating peptide (CPP) (fragment of Tat-peptide) at the N-termini and an amyloidogenic sequence at the C-termini, which was predicted using bioinformatics tools. The two sites were linked by four glycines. Thus, the construction of the fusion peptide was as follows: “CPP”+”linker GGGG”+ “predicted amyloidogenic-fragment”. The LHITDMAWKR and ITDFGIFIGL sequences were used as amyloidogenic fragments.

[2] = tested on: P. aeruginosa strain PA103; assay: Broth microdilution, strain PA103; type: cell-based, Pseudomonas aeruginosa; settings: LB medium, 2% DMSO, 24 h, 37 °C, 600 nm
Procedure: The R23R, R23L, R23R*, R23L* peptides and an antibiotic (gentamicin sulfate) were dissolved in 100% DMSO and solutions were prepared with a final DMSO concentration of 2% (volume/volume) to test their activity.
Stationary culture of P. aeruginosa strain PA103 was diluted 100 times in fresh LB medium with peptides R23R and R23L or gentamicin sulfate (positive control) at various concentrations. After 24 h at 37 °C co-incubation bacterial cells with peptides, the optical densities of the cultures were measured at a wavelength of 600 nm in a plate reader iMac (BioRad Laboratories, Hercules, CA, USA). Each test was carryout in three replicates.
In the next experiment to prepare a stationary culture of P. aeruginosa, strain PA103, a colony was inoculated from a Petri dish in 1.5 mL of liquid LB medium and set to grow for 24 h at 37 °C and with stirring at 180 rpm. In the experiment, we used a culture with an initial concentration of ≈10^6–10^7 CFU/mL (10 μL), sterile LB medium (80 μL), peptides R23R* and R23L* diluted in 20% (volume/volume) DMSO or the antibiotic gentamicin sulfate as a positive control (10 μL). […] Optical density was measured in a plate reader iMac (BioRad Laboratories, Hercules, CA, USA) at a wavelength of 600 nm every hour from 0 h to 24 h. Each sample is measured in duplicate.

[3] = tested on: P. aeruginosa strain PA103; assay: Inhibition zone assay on agar, strain PA103; type: cell-based, Pseudomonas aeruginosa; settings: 24 h
Procedure: (§1) The R23R, R23L, R23R*, R23L* peptides and an antibiotic (gentamicin sulfate) were dissolved in 100% DMSO and solutions were prepared to test their activity.
The culture of the studied bacteria (P. aeruginosa strain PA103) was diluted 10 times in Luria-Bertani (LB) medium with non-solidified 0.75% agar (w/w) on sterile Petri dishes. […]

[4] = tested on: P. aeruginosa strain ATCC 9027; assay: Antimicrobial test on agar, strain ATCC 9027; type: cell-based, Pseudomonas aeruginosa
Procedure: as §1
(§2) The P. aeruginosa strain ATCC 28753 was inoculated with a wire loop in 5 mL of LB medium and was incubated at 37 °C. After 12 h, plastic Petri dishes were poured with LB medium (about 5 mL) with 0.75% agar. Before pouring, 50 μL of an overnight culture of the test bacteria was added to each dish. The R23R, R23L, R23R*, and R23L* peptides were finally dissolved in 2% (volume/volume) DMSO and was tested with different concentrations with gentamicin sulfate as control of antimicrobial effect. The medium was dried and 10 μL of the prepared peptides were applied to it in accordance with the labeling. Then the dishes were placed in a thermostat and incubated for 12 h at a temperature of 37 °C. Antimicrobial activity was recorded by the presence of transparent zones of no growth around drops with peptide.
Studies with the P. aeruginosa strain ATCC 9027 were carried out similarly to the P. aeruginosa strain ATCC 28753. The exception was the amount of LB medium. Sterile plastic Petri dishes were filled with LB medium (about 25 mL) with 0.75% agar and 250 µL of an overnight culture of the test bacteria was added to each dish.

[5] = tested on: P. aeruginosa strain ATCC 28753; type: cell-based, Pseudomonas aeruginosa; settings: 10 µL drops on LB 0.75% agar, 2% DMSO, 12 h, 37 °C
Procedure: as §1, §2

[6] = tested on: human diploid fibroblasts; assay: Cytotoxicity assay, human fibroblasts; type: cell-based; settings: up to 8 µM, 24 h; resazurin assay, calcein-AM / propidium iodide staining, triplicate
Procedure: (§3) Cell viability was estimated as described previously by resazurin cell viability assay. Each assay was done in triplicate. All measurements were carried out on the control samples that were not treated with cytotoxic substances. We used human diploid fibroblasts and human breast duct carcinoma BT474 cells obtained from the American Type Cell Culture Collection (Manassas, Virginia, VA, USA). BT474 cells were cultured in DMEM medium (Sigma-Aldrich, St. Louis, MO, USA) supplemented with 10% fetal bovine serum (Gibco, Waltham, MA, USA), 40 μg/mL gentamicin sulfate (Sigma-Aldrich, St. Louis, MO, USA), at 37° C, under conditions of 5% content CO2 in the air. The analysis of living and dead cells was carried out using BD Accuri C6 flow cytometer (BD Bioscience, San Jose, CA, USA).

[7] = tested on: human breast duct carcinoma BT474 cells; assay: Cytotoxicity assay, BT474 cells; type: cell-based; settings: up to 8 µM, 24 h; resazurin assay, calcein-AM / propidium iodide staining, triplicate
Procedure: as §3

## ITDFGIFIGL [amyloidogenic fragment from the fifth domain of ribosomal S1 protein of P. aeruginosa]
[1]
  amyloid-like properties (in words): exhibited amyloid-like properties

## CNC(C)C1CCC(N)C(OC2C(N)CC(N)C(OC3OCC(C)(O)C(NC)C3O)C2O)O1 (centres unmarked) [gentamicin sulfate]
[2]; 174 µM
  Optical density: zero
[2]; 1740 µM
  Optical density: zero
[3]; Pseudomonas aeruginosa, PA103, drops on LB 0.75% agar, 20% DMSO, zones of inhibition, read-out: minimum inhibitory concentration (MIC)
  MIC: 170 µM

## RKKRRQRRRGG-Sar [R12-Sar, CPP fragment with GG-Sar, without amyloidogenic part]
[4]; drops on LB 0.75% agar, 3.75-3750 µM tested, zones of inhibition
  antimicrobial activity on agar (in words): did not exhibit antimicrobial activity
[4]; peptide 3.75 µM
  antibacterial properties on agar: Non-AMP
[4]; peptide 37.5 µM
  antibacterial properties on agar: Non-AMP
[4]; peptide 375 µM
  antibacterial properties on agar: Non-AMP
[4]; peptide 3750 µM
  antibacterial properties on agar: Non-AMP
[3]; drops on LB agar, b51 states it for bacteria grown on agar in general
  antimicrobial activity on agar (in words): did not exhibit antimicrobial activity
[3]; peptide 6.56 µM
  antibacterial properties on agar: Non-AMP
[3]; peptide 65.6 µM
  antibacterial properties on agar: Non-AMP
[3]; peptide 656 µM
  antibacterial properties on agar: Non-AMP
[3]; peptide 6560 µM
  antibacterial properties on agar: Non-AMP

## RKKRRQRRRGGGGITDFGIFIGL [R23L]
[5]
  MIC: about 300 µM
[6]
  cytotoxic effect / cell viability (in words): remained alive; also recorded: did not have a toxic effect
[7]
  cytotoxic effect / cell viability (in words): remained alive; also recorded: did not have a toxic effect

## RKKRRQRRRGGGGLHITDMAWKR [R23R]
[5]
  MIC: about 300 µM
[6]
  cytotoxic effect / cell viability (in words): remained alive; also recorded: did not have a toxic effect
[7]
  cytotoxic effect / cell viability (in words): remained alive; also recorded: did not have a toxic effect
